Data reported in patent US20120276245A1, “METHOD FOR IMPROVED FERMENTATION” (STICHTING TOP INSTITUTE FOOD AND NUTRITION, priority 2009, published 2012).
Like-named read-outs stand apart in the source and are kept apart here.

Key:
L. bulgaricus = assay: Intervention study: acidification of L. bulgaricus mono-culture in reconstituted skim milk; type: cell-based, Lactobacillus delbrueckii subsp. bulgaricus; conditions: 37° C., 19 h
Experimental: (§1) Cultures of S. thermophilus, L. bulgaricus and a mixed culture were prepared in 0.8 volume reconstituted skim milk with 0.2 volume of a solution with compounds: Na-pyruvate (1.82 mM), Na-formate (1.47 mM), folic acid (1 mM), nucleobases (10 mg/L each) (all representing purine and pyrimidine metabolism), Tween-20 (105.9 μM) (as a supply of lauric acid), Tween-80 (110 mg/L) (as a supply of oleic acid). Here after these compounds are referred to as ‘interaction compounds’. The LCFAs oleic acid and lauric acid are poorly soluble and therefore we used Tween-20 and Tween-80. The effect of each of all interaction compounds on growth and acidification was tested in a single addition and a single omission strategy. Paired comparisons were made of a single compound versus nothing added (neg. control), and of all compounds minus one added versus all (pos. control). Acidification of quadruplicate cultures of 250 μL, was measured at 37° C. for 19 h in hydroplates (PreSens—Precision Sensing GmbH, Germany) where after CFU counts were determined using a rapid miniplating method (36). Significant differences in acidification were determined by comparing the maximal acidification rate using a two-tailed Students t-test (p=0.05). Similarly, significant differences were calculated between the final pH values and between the colony-forming units. A higher cell count, lower final pH, higher acidification rate and a shorter time to reach this rate are considered stimulatory effect of the intervention compared to the control.

S. thermophilus = assay: Intervention study: acidification and growth of S. thermophilus mono-culture in reconstituted skim milk; type: cell-based, Streptococcus thermophilus; conditions: for Acidification by S. thermophilus: mono-culture in reconstituted skim milk, 37° C., 19 h, compounds listed in decreasing order of stimulation: formic acid, pyruvic acid, folic acid, Tween-20; for Growth of S. thermophilus in monoculture: in the absence of Lactobacillus bulgaricus
Experimental: as §1

[1] = tested on: pfl (pyruvate formate lyase gene); conditions: mixed culture supplemented with formic acid
Text: (§2) Microarrays were spotted on the Agilent 8x 15K platform (Agilent Technologies, Santa Clara, Calif., USA) with a custom probe design (AMADID 015342) comprising the sequences of both S. thermophilus CNRZ1066 (released by NCBI, genbank accession no. NC 006449) and L. bulgaricus ATCC BAA-365 (released by JGI, genbank accession no. NC 008529). The probes were designed with the objective to minimize cross-hybridization: the probes were species-specific, i.e. all probes were designed as 60-mers with a target score of 100% to the target gene, allowing no binding of cDNA that is 1 base different (mismatch) if the correct hybridization temperature (65° C.) and washing temperature (37° C.) are used. In total there are 5438 probes representing 1899 genes of S. thermophilus and 4028 spots representing 1709 genes of L. bulgaricus. Most genes are represented by 3 probes or more. Only 55 genes in S. thermophilus and 77 in L. bulgaricus are represented by one probe and only 5 genes of S. thermophilus and 31 genes of L. bulgaricus are lacking. The selectivity of strain specific gene detection was tested by a series of transcriptome profiling experiments of samples from MRS-grown mono-cultures of both strains. […] They were excluded from further analysis.
(§3) The high protein content of milk and the polysaccharide production by the grown microorganisms make cell harvesting problematic. Furthermore, sampling and quenching need to be carried out rapidly in order to prevent the introduction of technical errors in a transcriptomics experiment. Several procedures have been developed to “clear” the milk to enable cell harvest by centrifugation without the contamination with milk solids. However, milk cleaning procedures are time consuming and require drastic changes in pH and the addition of large quantities of sodium citrate.

[2] = tested on: pflA (pyruvate formate lyase gene); conditions: mixed culture supplemented with formic acid
Text: as §2, §3

[3] = tested on: genes involved in biosynthesis of purines and folic acid cycling; conditions: formic acid supplied, both species
Text: as §2, §3

[4] = tested on: mixed culture of S. thermophilus and L. bulgaricus; assay: Intervention study: acidification of mixed culture in reconstituted skim milk; type: cell-based; conditions: 37° C., 19 h, stimulatory effects less than with the mono-cultures
Experimental: as §1, with “A higher cell count, lower final pH, higher acidification rate and a shorter time to reach this rate are considered stimulatory effect of the intervention compared to the control.” left out

Row | Molecule | L. bulgaricus acidification (L. bulgaricus) | Acidification by S. thermophilus (S. thermophilus) | Growth of S. thermophilus in monoculture (S. thermophilus) | Expression of pfl down-regulated when formic acid was supplied [1] | Expression of pflA down-regulated when formic acid was supplied [2] | Expression of genes involved in biosynthesis of purines and folic acid cycling ([3]; early (second) exponential phase) | Expression of genes involved in biosynthesis of purines and folic acid cycling ([3]; mid exponential phase) | Acidification of the mixed cultures [4]
1 | Nc1nc2ncc(CNc3ccc(C(=O)N[C@@H](CCC(=O)O)C(=O)O)cc3)nc2c(=O)[nH]1 [folic acid] | small stimulatory effect | stimulated | stimulate growth |  |  |  |  | 
2 | O=CO [formic acid] | stimulated the most | stimulated |  | 3.8 fold | 5.7 fold | lower | higher | still stimulated
3 | CC(=O)C(=O)O [pyruvic acid] | small stimulatory effect | stimulated | stimulate growth |  |  |  |  | still stimulated
4 | Tween-20 | small stimulatory effect | stimulated | stimulate growth |  |  |  |  | 
5 | Tween-80 | small stimulatory effect |  |  |  |  |  |  | 
